Source: ChEMBL document CHEMBL3808308, “Synergistic potentiation of (-)-lomaiviticin A cytotoxicity by the ATR inhibitor VE-821” (Bioorg Med Chem Lett, 2016)
Activity calls are given as the source filed them. The calls are words filed in the database; no cut-off is given here.

Columns and labels:
K562 [1] = assay: Potentiation of 0.05 nM (-)-lomaiviticin A-induced cytotoxicity against human K562 cells assessed as fraction ratio affected at 10 uM after 24 hrs by cell titer-glo luminescence assay; assay type: functional
K562 [2] = assay: Potentiation of 0.25 nM (-)-lomaiviticin A-induced cytotoxicity against human K562 cells assessed as fraction ratio affected at 10 uM after 24 hrs by cell titer-glo luminescence assay; assay type: functional
K562 [3] = assay: Potentiation of 0.5 nM (-)-lomaiviticin A-induced cytotoxicity against human K562 cells assessed as fraction ratio affected at 10 uM after 24 hrs by cell titer-glo luminescence assay; assay type: functional
K562 [4] = assay: Potentiation of 2.5 nM (-)-lomaiviticin A-induced cytotoxicity against human K562 cells assessed as fraction ratio affected at 10 uM after 24 hrs by cell titer-glo luminescence assay; assay type: functional
K562 [5] = assay: Potentiation of 5 nM (-)-lomaiviticin A-induced cytotoxicity against human K562 cells assessed as fraction ratio affected at 10 uM after 24 hrs by cell titer-glo luminescence assay; assay type: functional
K562 [6] = assay: Potentiation of 0.025 nM (-)-lomaiviticin A-induced cytotoxicity against human K562 cells assessed as combination index at 10 uM after 24 hrs by cell titer-glo luminescence assay; assay type: functional
K562 [7] = assay: Potentiation of 0.05 nM (-)-lomaiviticin A-induced cytotoxicity against human K562 cells assessed as combination index at 10 uM after 24 hrs by cell titer-glo luminescence assay; assay type: functional
K562 [8] = assay: Potentiation of 0.25 nM (-)-lomaiviticin A-induced cytotoxicity against human K562 cells assessed as combination index at 10 uM after 24 hrs by cell titer-glo luminescence assay; assay type: functional
K562 [9] = assay: Potentiation of 0.5 nM (-)-lomaiviticin A-induced cytotoxicity against human K562 cells assessed as combination index at 10 uM after 24 hrs by cell titer-glo luminescence assay; assay type: functional
K562 [10] = assay: Potentiation of 2.5 nM (-)-lomaiviticin A-induced cytotoxicity against human K562 cells assessed as combination index at 10 uM after 24 hrs by cell titer-glo luminescence assay; assay type: functional
K562 [11] = assay: Potentiation of 5 nM (-)-lomaiviticin A-induced cytotoxicity against human K562 cells assessed as combination index at 10 uM after 24 hrs by cell titer-glo luminescence assay; assay type: functional
K562 [12] = assay: Potentiation of 0.025 nM (-)-lomaiviticin A-induced cytotoxicity against human K562 cells assessed as fraction ratio affected at 10 uM after 48 hrs by cell titer-glo luminescence assay; assay type: functional
K562 [13] = assay: Potentiation of 0.05 nM (-)-lomaiviticin A-induced cytotoxicity against human K562 cells assessed as fraction ratio affected at 10 uM after 48 hrs by cell titer-glo luminescence assay; assay type: functional
K562 [14] = assay: Potentiation of 0.25 nM (-)-lomaiviticin A-induced cytotoxicity against human K562 cells assessed as fraction ratio affected at 10 uM after 48 hrs by cell titer-glo luminescence assay; assay type: functional
K562 [15] = assay: Potentiation of 0.5 nM (-)-lomaiviticin A-induced cytotoxicity against human K562 cells assessed as fraction ratio affected at 10 uM after 48 hrs by cell titer-glo luminescence assay; assay type: functional
K562 [16] = assay: Potentiation of 2.5 nM (-)-lomaiviticin A-induced cytotoxicity against human K562 cells assessed as fraction ratio affected at 10 uM after 48 hrs by cell titer-glo luminescence assay; assay type: functional
K562 [17] = assay: Potentiation of 5 nM (-)-lomaiviticin A-induced cytotoxicity against human K562 cells assessed as fraction ratio affected at 10 uM after 48 hrs by cell titer-glo luminescence assay; assay type: functional
K562 [18] = assay: Potentiation of 0.025 nM (-)-lomaiviticin A-induced cytotoxicity against human K562 cells assessed as combination index at 10 uM after 48 hrs by cell titer-glo luminescence assay; assay type: functional
K562 [19] = assay: Potentiation of 0.05 nM (-)-lomaiviticin A-induced cytotoxicity against human K562 cells assessed as combination index at 10 uM after 48 hrs by cell titer-glo luminescence assay; assay type: functional
K562 [20] = assay: Potentiation of 0.25 nM (-)-lomaiviticin A-induced cytotoxicity against human K562 cells assessed as combination index at 10 uM after 48 hrs by cell titer-glo luminescence assay; assay type: functional
K562 [21] = assay: Potentiation of 0.5 nM (-)-lomaiviticin A-induced cytotoxicity against human K562 cells assessed as combination index at 10 uM after 48 hrs by cell titer-glo luminescence assay; assay type: functional
K562 [22] = assay: Potentiation of 2.5 nM (-)-lomaiviticin A-induced cytotoxicity against human K562 cells assessed as combination index at 10 uM after 48 hrs by cell titer-glo luminescence assay; assay type: functional
K562 [23] = assay: Potentiation of 5 nM (-)-lomaiviticin A-induced cytotoxicity against human K562 cells assessed as combination index at 10 uM after 48 hrs by cell titer-glo luminescence assay; assay type: functional
K562 [24] = assay: Cytotoxicity against human K562 cells assessed as decrease in cell viability up to 10 uM after 24 to 48 hrs by cell titer-glo luminescence assay; assay type: cell-based
K562 [25] = assay: Potentiation of 50 pM (-)-lomaiviticin A-induced cytotoxicity against human K562 cells assessed as decrease in cell viability at 10 uM after 24 hrs by cell titer-glo luminescence assay; assay type: functional
K562 [26] = assay: Potentiation of 50 pM (-)-lomaiviticin A-induced cytotoxicity against human K562 cells assessed as decrease in cell viability at 10 uM after 48 hrs by cell titer-glo luminescence assay; assay type: functional
K562 [27] = assay: Potentiation of 500 pM (-)-lomaiviticin A-induced cytotoxicity against human K562 cells assessed as decrease in cell viability at 10 uM after 48 hrs by cell titer-glo luminescence assay; assay type: functional
K562 [28] = assay: Induction of DNA double-strand breaks in human K562 cells after 24 hrs by neutral comet assay in presence of (-)-lomaiviticin A; assay type: functional, cell-based
K562 [29] = assay: Induction of DNA double-strand breaks in human K562 cells assessed as median tail moment at 10 uM after 24 hrs by neutral comet assay in presence of 500 pM (-)-lomaiviticin A; assay type: functional
K562 [30] = assay: Induction of apoptosis in human K562 cells assessed as gammaH2AX/53BP1 levels at 10 uM after 48 hrs by DAPI staining based immunofluorescence microscopy in presence of 25 to 250 pM (-)-lomaiviticin A; assay type: functional, cell-based
K562 [31] = assay: Induction of apoptosis in human K562 cells assessed as gammaH2AX/53BP1 levels at 10 uM after 48 hrs by DAPI staining based immunofluorescence microscopy; assay type: cell-based; conditions: k562, 48 h
K562 [32] = assay: Cytotoxicity against human K562 cells assessed as decrease in cell viability up to 2.5 to 10 uM after 24 to 48 hrs by cell titer-glo luminescence assay; assay type: cell-based
[33] = Cytotoxicity against human K562 cells assessed as decrease in cell viability after 24 hrs by cell titer-glo luminescence assay; assay type: cell-based; conditions: read-out: ED50
[34] = Cytotoxicity against human K562 cells assessed as decrease in cell viability after 48 hrs by cell titer-glo luminescence assay; assay type: cell-based; conditions: read-out: ED50
K562 [35] = assay: Potentiation of 0.025 nM (-)-lomaiviticin A-induced cytotoxicity against human K562 cells assessed as fraction ratio affected at 10 uM after 24 hrs by cell titer-glo luminescence assay; assay type: functional

CS(=O)(=O)c1ccc(-c2cnc(N)c(C(=O)Nc3ccccc3)n2)cc1
Ratio (K562 [1]): 0.1819
Ratio (K562 [2]): 0.6516
Ratio (K562 [3]): 0.814
Ratio (K562 [4]): 0.8772
Ratio (K562 [5]): 0.9357
CI (K562 [6]): 0.1138
CI (K562 [7]): 0.0774
CI (K562 [8]): 0.06881
CI (K562 [9]): 0.09717
CI (K562 [10]): 0.4019
CI (K562 [11]): 0.6748
Ratio (K562 [12]): 0.3737
Ratio (K562 [13]): 0.6017
Ratio (K562 [14]): 0.9206
Ratio (K562 [15]): 0.961
Ratio (K562 [16]): 0.966
Ratio (K562 [17]): 0.9837
CI (K562 [18]): 0.2066
CI (K562 [19]): 0.1328
CI (K562 [20]): 0.1058
CI (K562 [21]): 0.1448
CI (K562 [22]): 0.6223
CI (K562 [23]): 1.029
Activity (K562 [24]): < 13%
Activity (K562 [25]): 18%
Activity (K562 [26]): 40%
Activity (K562 [27]): 96%
Activity (K562 [28]): Dose-dependent effect
Activity (K562 [29]): 34
Activity (K562 [30]): Active
Activity (K562 [31]): Non-toxic
Activity (K562 [32]): Non-toxic
CC50 at 24 h [33]: 449 µM
CC50 at 48 h [34]: 71 µM
Ratio (K562 [35]): 0.08806
